Results on 8 compounds are retold here after US4130637A, “Anti-plaque agents” (Colgate-Palmolive Company, priority 1977, dated 1978).

Series [1] can be described thus: In vivo stain formation test on beagles (oral spray). Details: species or system Beagle dogs. An excerpt:
This treatment was continued daily for 7 weeks. […] Score results range from 0 to 4:
1 stain present covering one-fourth of tooth surface;
2 stain present covering one-half of tooth surface;
3 stain present covering three-fourths of tooth surface;
4 stain present covering entire tooth surface.
(§1) The animals used in these studies were registered Beagle dogs 6 to 8 months of age, weighing 8 to 10 kilos. The animals were kept in good health and had not received any treatment for at least three weeks prior to the start of a study. They were anaesthesized (Na-Nembutal 25-30 mgs/kg) and received a complete dental prophylaxis. Disclosing solution (TRACE, Erythrosine, Lorvic St. Louis, Mo. U.S.A.) was used to insure the complete removal of soft and hard dental deposits. The dogs receive this diet exclusively -- ground Purina Dog Chow soaked in water for at least two hours to form a soft mush. In addition, each animal receives approximately one-half can of ground beef (no chunks). No hard substances were permitted for the duration of the study. The animals were treated once daily with the test solutions (approx. 6 to 9 ml.) using a gentle spray over all surfaces of dentition. Treatments continued at least five days per week for the duration of the experiment. Each animal was examined weekly for plaque, and stain. Photographs were taken by the examining investigator immediately after the prophylaxis and at every examination. Before starting with the plaque study, the groups were balanced with respect to plaque formation.

Series [2] can be described thus: In vivo plaque test on beagles (disclosing solution). The settings on record: for PLAQUE Mean Score: Table II, score 1-4, 20 teeth per beagle, placebo 2.19, benzethonium chloride at .075%; for PLAQUE % Diff.: versus placebo, Signif. printed: 50/50 mixture N.S., 90% betaine 95%, Hibitane 95%, .075% benzethonium chloride 99%. Set-up: species or system Beagle dogs.
Source text: as §1, with “The animals were kept in good health and had not received any treatment for at least three weeks prior to the start of a study.” left out

The test system of series [3] is A. naeslundi. The experiment in a line: Minimum inhibitory concentration, test tube serial dilution test. The settings on record: Actinomyces naeslundii, Gram Positive. The format is cell-based, Actinomycetis naeslundii. The method, then: (§2) The antimicrobial nature of the instant novel nontoxic compounds was shown by a standard test tube serial dilution test in which an appropriate number of test tubes of broth containing decreasing concentration of the test agent was innoculated with the test organism (0.1% in 95% ethyl alcohol). After a suitable period of incubation, the tubes were examined for the presence or absence of growth. The activity of the test agent was the lowest concentration which inhibited the growth of the organism and is expressed as the minimal inhibitory concentration in μgm/ml.

Series [4] deals with A. niger. The description is as above. In kind it is cell-based. The note with it: Aspergillus niger, mold. The method, then:
as §2

Series [5] deals with C. albicans. The description is as above. In kind it is cell-based. The note with it: Candida albicans, yeast. The method, then:
as §2

Series [6] concerns E. Coli. The series is described as above. In kind it is cell-based. The note with it: Escherichia coli, Gram Negative. The procedure:
as §2

Series [7] has as its system Ps. aeruginosa. The series is described as above. In kind it is cell-based. The settings on record: Pseudomonas aeruginosa, Gram Negative. The procedure:
as §2

For series [8], the system named is Staphylococcus aureus. Described as above. In kind it is cell-based. The note with it: S. aureus, Gram Positive. The method, then:
as §2

Series [9] concerns Strep. mutans. Described as above. The format is cell-based. The settings on record: Streptococcus mutans, Gram Positive. The procedure:
as §2

Series [10] deals with Strep. sanguis. Described as above. The format is cell-based. The settings on record: Streptococcus, Gram Positive. The method, then:
as §2

Series [11] has as its system T. ment. The series is described as above. The format is cell-based, Trichophyton mentogrophytes. The settings on record: Trichophyton, mold. The procedure: as §2
For series [12], the system named is bacteria. The note with it: Stedman et al. 1953; cited from earlier work.
Series [13] has as its system micro-organisms. Kind of series: Antimicrobial activity (general statements). The format is cell-based. The method, then: as §2, with “μgm/ml. As shown in the following table of anitmicrobial data, the betaines of this invention are active against a variety of micro-organisms with maximum activity when the higher alkyl group has 14-16 carbons.” for “μgm/ml.”
Series [14] has as its system micro-organisms. The note with it: reported by Swain et al. and Stedman et al.; cited from earlier work.
Series [15] can be described thus: Staining of teeth / oral surfaces (general statements). The note with it: under use conditions. In kind it is in vivo.

Structures are written as SMILES. Counter-ions that a name gives are not always drawn.

On to `CC(C)(C)CC(C)(C)c1ccc(OCCOCC[N+](C)(C)Cc2ccccc2)cc1` [Benzethonium Chloride, benzethonium chloride], for which the “Mean Stain Result” value in series [1] (0.1% aqueous solution, daily spray, 7 weeks, 10 dogs, score 0-4, deionized water 0.07) is 0.59. For the same compound, the increase in staining in series [1] (0.1% solution, 7 weeks, versus deionized water) is 742%. Also, in series [1] (Table II, dogs with stain/dogs tested, placebo 1/8, benzethonium chloride at .075%), the “No. of dogs w. Stain” value was 3/7. For the same compound, the “Mean Stain Score” value in series [1] (Table II, score 0-4, placebo 0.388, benzethonium chloride at .075%) is on record as 0.53. In series [2], the “PLAQUE Mean Score” value was found to be 1.80 and the “PLAQUE % Diff.” value is listed as -25.0%.
For the compound `CCCCCCCCCCCC[N+](C)(C)CCCCCCCCCCC(=O)O` [C12 H25 [RN^+ (CH3)2 (CH2)10 COOH] Pr^-], the MIC (in general, the least concentration at which growth counts as inhibited) in series [3] worked out at 12.5 µg/mL; in [4] it was 50 µg/mL; in [5], 25 µg/mL; in series [6], 100 µg/mL; in [7], 50 µg/mL; in [8], 6.25 µg/mL. The MIC in [9], in series [10] and in series [11] was 12.5 µg/mL in each case.
For the compound `CCCCCCCCCCCCCC[N+](C)(C)CCCCCCCCCCC(=O)[O-]` [C14 H29 RN^+ CH3)2 (CH2)10 COOH, N-(10-Carboxydecyl)-N, N-dimethyltetradecanaminium hydroxide, inner salt], the MIC came out at 0.39 µg/mL in [3]; 50 µg/mL in series [4]; 3.12 µg/mL in series [5]; 100 µg/mL in [6]; 100 µg/mL in [7]; 1.56 µg/mL in series [8]. The MIC amounted to 1.56 µg/mL in series [9], 1.56 µg/mL in series [10] and 0.78 µg/mL in series [11].
As for `CCCCCCCCCCCCCC[N+](C)(C)CCCCCCCCCCC(=O)O.[Br-]` [C14 H29 [RN^+ (CH3)2 (CH2)10 COOH] Pr^-, tetradecyldimethyl(10-carboxydecyl)-ammonium bromide], the MIC in series [3] was found to be 0.39 µg/mL; in [4] it was 25 µg/mL; in [5], 3.12 µg/mL; in series [6], 100 µg/mL; in series [7] it was 50 µg/mL; in [8], 0.39 µg/mL. Also, the MIC in series [9] stood at 1.56 µg/mL; in series [10] it was 1.56 µg/mL; in [11], 3.12 µg/mL.
On to `CCCCCCCCCCCCCCCC[N+](C)(C)CC(=O)[O-]` [C16 H33 N^+ (CH3)2 CH2 COO^-], for which the “bactericidal activity relative to related non-betaine [C16 H33 N(CH3)2 CH2 C6 H5 ]Cl” value in series [12] is “less than one-tenth”.
On to `CCCCCCCCCCCCCCCC[N+](C)(C)CCCCCCCCCCC(=O)[O-]` [C16 H33 RN^+ CH3)2 (CH2)10 COOH, N-(10-Carboxydecyl)-N,N-dimethylhexadecanaminium hydroxide, inner salt], for which the MIC in series [3] was determined as 0.78 µg/mL; in series [4], 100 µg/mL; in series [5], 3.12 µg/mL; in [6] it was 100 µg/mL; in series [7], 100 µg/mL; in series [8], 1.56 µg/mL. Moreover, the MIC in series [9] turned out to be 1.56 µg/mL; in series [10], 0.78 µg/mL; in [11], 1.56 µg/mL. The “antimicrobial activity” value in series [13] is “the activity is not diminished and is sufficient for the exhibition of useful antimicrobial and anti-plaque properties”.
For `CCCCCCCCCCCCCCCC[N+](C)(C)CCCCCCCCCCC(=O)O.[Br-]` [C16 H33 [RN^+ (CH3)2 (CH2)10 COOH] Pr^-, Hexadecyldimethyl(10-carboxydecyl)ammonium bromide], the minimal inhibitory concentration (MIC) in series [3] came to 0.78 µg/mL; in [4], 50 µg/mL; in [5], 3.12 µg/mL; in series [6] it was 100 µg/mL; in series [7] it was 50 µg/mL; in [8], 0.39 µg/mL. Besides, the results for the MIC in series [9], in series [10] and in [11] were 1.56 µg/mL, 1.56 µg/mL and 12.5 µg/mL, respectively. For the same compound, in series [14], the “antimicrobial properties” value is “reported to have antimicrobial properties”.
With `[H]/N=C(\N/C(=N/[H])NCCCCCCNC(=N)NC(=N)Nc1ccc(Cl)cc1)Nc1ccc(Cl)cc1` [Hibitane, Chlorhexidine], in series [1] (dog, in vivo), the “Mean Stain Score” value is on record as 0.956, the “No. of dogs w. Stain” value is listed as 8/8 and the “degree of staining” value is “significantly increased staining”. Besides, in series [2], the “PLAQUE Mean Score” value is 1.32 and the “PLAQUE % Diff.” value is -39.7%. In addition, the “staining / discoloration” value in series [15] was “noticeable discolorations”.
